Results reported in ChEMBL document CHEMBL5352457, “Discovery of orally active 1,4,5,6,8-pentaazaacenaphthylens as novel, selective, and potent covalent BTK inhibitors for the treatment of rheumatoid arthritis” (Eur J Med Chem, 2023).
In brackets after ≈: the same amount, converted by molar mass.

How the values were obtained:
in vivo [1] = settings: Sprague-Dawley, rat, po, 10 mg/kg
in vivo [2] = settings: Sprague-Dawley, rat, po, 10 mg/kg; remark: listed apart in the source
in vivo [3] = settings: Sprague-Dawley, rat, iv, 1 mg/kg
in vivo [4] = settings: Sprague-Dawley, rat, po, 10 mg/kg; remark: listed apart in the source
in vivo [5] = settings: Sprague-Dawley, rat, iv, 1 mg/kg; remark: listed apart in the source
in vivo [6] = settings: Sprague-Dawley, rat, iv, 1 mg/kg; remark: listed apart in the source
in vivo [7] = settings: Sprague-Dawley, rat, po, 10 mg/kg; remark: listed apart in the source
in vivo [8] = settings: Sprague-Dawley, rat, plasma, po, 10 mg/kg
physchem [9] = settings: buffer, pH 7.4
physchem [10] = settings: buffer, pH 7

## C=CC(=O)N1CC[C@@H](N2N=C(Nc3ccc(Oc4ccccc4)cc3)c3c[nH]c4ncnc2c34)C1
In vivo [1]
  Cmax at 24 h: 0.0525 µg/mL
In vivo [2]
  Tmax at 24 h: 1 h
In vivo [3]
  AUC at 24 h: 0.454 µg·h/mL
In vivo [4]
  AUC at 24 h: 0.164 µg·h/mL
In vivo [5]
  clearance at 24 h: 2.21 L/h/kg
In vivo [6]
  Vd at 24 h: 1.67 L/kg
In vivo [7]
  bioavailability at 24 h: 3.6%
In vivo [8]
  concentration at 1 h: 0.125 µM
Physchem [9]
  remaining at 24 h: 80.2%
Physchem [10]
  solubility: 174 µM (≈ 81 µg/mL)
